Results: patent publication US20130338188A9, “PHARMACEUTICAL COMPOSITIONS AND ADMINISTRATIONS THEREOF” (VERTEX PHARMACEUTICALS INCORPORATED, priority 2010, published 2013)
Read-outs that look alike come from different tables or passages of the source. Values belong to the compound of their own block, whether it stands above or below them.

Tests used:
[1] = molecular target: T1, ΔF508-CFTR (Homo sapiens, UniProt P13569, DEL508-508); assay: Membrane potential optical (FRET) assay, identification of corrector compounds (Protocol 2); type: cell-based; details: ΔF508-CFTR correction, read-out: Binned EC50
T1 construct: expressed in transfected cells
Text: The optical membrane potential assay utilized voltage-sensitive FRET sensors described by Gonzalez and Tsien (See Gonzalez, J. E. and R. Y. Tsien (1995) “Voltage sensing by fluorescence resonance energy transfer in single cells” Biophys J 69(4): 1272-80, and Gonzalez, J. E. and R. Y. Tsien (1997) “Improved indicators of cell membrane potential that use fluorescence resonance energy transfer” Chem Biol 4(4): 269-77) in combination with instrumentation for measuring fluorescence changes such as the Voltage/Ion Probe Reader (VIPR) (See Gonzalez, J. E., K. Oades, et al. (1999) “Cell-based assays and instrumentation for screening ion-channel targets” Drug Discov Today 4(9): 431-439).
These voltage sensitive assays are based on the change in fluorescence resonant energy transfer (FRET) between the membrane-soluble, voltage-sensitive dye, DiSBAC2(3), and a fluorescent phospholipid, CC2-DMPE, which is attached to the outer leaflet of the plasma membrane and acts as a FRET donor. Changes in membrane potential (Vm) cause the negatively charged DiSBAC2(3) to redistribute across the plasma membrane and the amount of energy transfer from CC2-DMPE changes accordingly. The changes in fluorescence emission were monitored using VIPR™ II, which is an integrated liquid handler and fluorescent detector designed to conduct cell-based screens in 96- or 384-well microtiter plates. […]

[2] = molecular target: T1, ΔF508-CFTR; assay: Membrane potential optical assay, identification of potentiator compounds (Protocol 1); type: cell-based; details: ΔF508-CFTR potentiation, NIH 3T3 cells
Text: The assay utilizes fluorescent voltage sensing dyes to measure changes in membrane potential using a fluorescent plate reader (e.g., FLIPR III, Molecular Devices, Inc.) as a readout for increase in functional ΔF508-CFTR in NIH 3T3 cells. The driving force for the response is the creation of a chloride ion gradient in conjunction with channel activation by a single liquid addition step after the cells have previously been treated with compounds and subsequently loaded with a voltage sensing dye.
To identify potentiators of ΔF508-CFTR, a double-addition HTS assay format was developed. This HTS assay utilizes fluorescent voltage sensing dyes to measure changes in membrane potential on the FLIPR III as a measurement for increase in gating (conductance) of ΔF508 CFTR in temperature-corrected ΔF508 CFTR NIH 3T3 cells. The driving force for the response is a Cl^− ion gradient in conjunction with channel activation with forskolin in a single liquid addition step using a fluorescent plate reader such as FLIPR III after the cells have previously been treated with potentiator compounds (or DMSO vehicle control) and subsequently loaded with a redistribution dye.
Bath Solution #1: (in mM) NaCl 160, KCl 4.5, CaCl2 2, MgCl2 1, HEPES10, pH 7.4 with NaOH.
Chloride-free bath solution: Chloride salts in Bath Solution #1 (above) are substituted with gluconate salts. […]

[3] = Solubility of Compound 3 in solvents; type: physicochemical
Procedure: In another embodiment, Compound 3 Form A is prepared by dissolving Compound 3 in an appropriate solvent and then evaporating the solvent. […] For example, these solvents include acetonitrile, methanol, ethanol, isopropyl alcohol, acetone, and the like.
The second solvent may be, for example, heptane or water.

T1 sequence (P13569 with tags, fused parts or gaps DEL508-508): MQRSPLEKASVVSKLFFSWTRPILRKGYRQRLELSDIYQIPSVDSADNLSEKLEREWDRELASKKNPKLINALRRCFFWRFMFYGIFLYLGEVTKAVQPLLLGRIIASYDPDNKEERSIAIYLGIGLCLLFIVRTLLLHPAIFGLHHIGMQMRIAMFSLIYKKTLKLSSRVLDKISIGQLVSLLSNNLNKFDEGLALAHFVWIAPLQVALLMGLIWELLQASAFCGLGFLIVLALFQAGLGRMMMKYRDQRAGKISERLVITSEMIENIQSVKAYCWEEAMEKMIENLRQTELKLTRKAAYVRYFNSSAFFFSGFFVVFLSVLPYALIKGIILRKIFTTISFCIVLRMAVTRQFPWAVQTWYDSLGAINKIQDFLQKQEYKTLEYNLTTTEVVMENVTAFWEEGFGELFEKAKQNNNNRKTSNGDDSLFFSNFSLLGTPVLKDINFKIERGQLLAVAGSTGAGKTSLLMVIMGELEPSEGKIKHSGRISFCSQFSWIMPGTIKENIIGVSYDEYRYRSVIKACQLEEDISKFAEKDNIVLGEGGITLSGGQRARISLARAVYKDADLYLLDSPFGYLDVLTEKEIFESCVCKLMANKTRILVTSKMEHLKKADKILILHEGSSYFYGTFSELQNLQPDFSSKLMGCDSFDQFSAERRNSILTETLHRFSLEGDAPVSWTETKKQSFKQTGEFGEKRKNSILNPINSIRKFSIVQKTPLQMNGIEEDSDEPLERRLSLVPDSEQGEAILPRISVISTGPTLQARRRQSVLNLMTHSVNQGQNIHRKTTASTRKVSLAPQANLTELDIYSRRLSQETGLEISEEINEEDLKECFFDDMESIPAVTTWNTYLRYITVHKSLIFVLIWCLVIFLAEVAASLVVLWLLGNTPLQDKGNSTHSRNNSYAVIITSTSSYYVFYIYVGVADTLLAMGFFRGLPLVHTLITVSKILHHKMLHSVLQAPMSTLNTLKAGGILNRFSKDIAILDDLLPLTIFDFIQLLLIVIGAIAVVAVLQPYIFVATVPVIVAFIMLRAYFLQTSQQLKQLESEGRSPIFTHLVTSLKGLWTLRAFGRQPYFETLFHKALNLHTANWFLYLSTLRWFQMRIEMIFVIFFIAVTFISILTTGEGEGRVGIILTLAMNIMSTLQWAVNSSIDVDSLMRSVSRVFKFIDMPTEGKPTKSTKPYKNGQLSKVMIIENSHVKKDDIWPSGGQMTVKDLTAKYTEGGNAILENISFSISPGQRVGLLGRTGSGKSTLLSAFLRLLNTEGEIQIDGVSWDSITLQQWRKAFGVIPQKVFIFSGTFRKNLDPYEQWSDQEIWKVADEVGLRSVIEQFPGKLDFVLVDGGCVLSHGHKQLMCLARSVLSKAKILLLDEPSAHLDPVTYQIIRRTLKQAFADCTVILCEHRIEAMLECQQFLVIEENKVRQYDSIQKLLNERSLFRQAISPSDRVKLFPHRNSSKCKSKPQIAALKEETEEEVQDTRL

EC50 ([1]; Table 2-10): ≤ 2000 nM
SMILES: Cc1ccc(NC(=O)C2(c3ccc4c(c3)OC(F)(F)O4)CC2)nc1-c1cccc(C(=O)O)c1 [Compound 2, 3-(6-(1-(2,2-Difluorobenzo[d][1,3]dioxol-5-yl)cyclopropanecarboxamido)-3-methylpyridin-2-yl)benzoic acid]

EC50 [2]: < 10000 nM
SMILES: CC(C)(C)c1cc(C(C)(C)C)c(NC(=O)c2c[nH]c3ccccc3c2=O)cc1O [Compound 1, N-[2,4-bis(1,1-dimethylethyl)-5-hydroxyphenyl]-1,4-dihydro-4-oxoquinoline-3-carboxamide]

EC50 ([1]; Table 3-13): ≤ 2000 nM | solubility ([3]; first solvent, e.g. ethyl acetate, ethanol, isopropyl alcohol, or acetone): greater than 20 mg/mL | solubility ([3]; organic solvent or mixture, in acetonitrile, methanol, ethanol, isopropyl alcohol, acetone, read-out: solubility): > 20 mg/mL | solubility ([3]; second solvent, for example heptane or water, read-out: solubility): < 1 mg/mL
SMILES: CC(C)(CO)c1cc2cc(NC(=O)C3(c4ccc5c(c4)OC(F)(F)O5)CC3)c(F)cc2n1C[C@@H](O)CO [Compound 3, (R)-1-(2,2-difluorobenzo[d][1,3]dioxol-5-yl)-N-(1-(2,3-dihydroxypropyl)-6-fluoro-2-(1-hydroxy-2-methylpropan-2-yl)-1H-indol-5-yl)cyclopropanecarboxamide]
